Source: patent US12302841B2, “Soybean variety comprising high content of epicatechin” (AMOREPACIFIC CORPORATION, priority 2020, dated 2025)

Key:
[1] = Antioxidant activity test through DPPH reduction (DPPH radical-scavenging ability); format: biochemical; details: 100 μM DPPH in ethanol, 37° C. for 30 minutes, absorbance at 540 nm; sample concentration at which absorbance decreased by 50%
Method: In order to investigate the antioxidant activity of the extract of the Aritaunkong bred in Example 1, the DPPH (1,1-diphenyl-2-picrylhydrazyl) oxidation-inhibiting effect of each soybean extract prepared in Preparation Example was compared by monitoring the change in absorbance occurring as a result of reduction of DPPH. Specifically, after preparing 190 μL of a 100 μM (in ethanol) DPPH solution and the soybean extract of Preparation Example and the synthetic antioxidant Trolox (positive control group) to a concentration of 10,000 ppm, they were diluted to final concentrations of 500 ppm, 250 ppm, 125 ppm, 62.5 ppm, 31.25 ppm and 15.63 ppm. After preparing […] reaction solutions by mixing them, absorbance was measured at 540 nm after incubation at 37° C. for 30 minutes. The IC50 indicates the sample concentration when the absorbance was decreased by 50% due to the addition of the sample.

collagenase (MMP-1) = test: Collagenase (MMP-1) expression inhibition test in human fibroblasts; format: cell-based; details: 10 μg/mL in serum-free DMEM, 24 hours, relative to untreated group
Method: In order to investigate the antiaging activity of the extract of the Aritaunkong bred in Example 1, the collagenase (MMP-1) expression-inhibiting effect of each of the soybean extracts prepared in Preparation Example was assessed. Specifically, after placing human fibroblasts (Cascade Biologics, Portland, OR, USA) on a 96-well microtiter plate containing DMEM (Dulbecco's modified Eagle's medium) supplemented with 2.5 wt % of fetal bovine serum at 5,000 cells/well, the cells were cultured until ˜90% confluency. Then, after culturing the cells in serum-free DMEM for 24 hours and treating with each of the three soybean extracts of Preparation Example or EGCG (Sigma-Aldrich) as a positive control group, dissolved in serum-free DMEM to 10 μg/mL, for 24 hours, the cell culture was collected. Subsequently, the degree of collagenase production in the collected cell culture was measured using a collagenase measurement kit (Amersham Pharmacia, USA). First, after placing the collected cell culture on a 96-well plate on which a primary collagenase antibody is coated uniformly, antigen-antibody reaction was conducted for 3 hours in a constant-temperature bath (36° C.). […] Collagenase expression inhibition (%)=(1−absorbance of substance-treated cell group/absorbance of control group)×100 [Equation 1]

Row | DPPH radical-scavenging ability (IC50) [1] [ppm] | Collagenase expression inhibition (%) (collagenase (MMP-1)) | SMILES
1 | 53.2 |  | Cc1c(C)c2c(c(C)c1O)CCC(C)(C(=O)O)O2 (centres unmarked) [Trolox]
2 |  | 60.8 | O=C(O[C@@H]1Cc2c(O)cc(O)cc2O[C@@H]1c1cc(O)c(O)c(O)c1)c1cc(O)c(O)c(O)c1 [EGCG]
